# Data published in patent US9486507B2, “Pro-coagulant compounds and methods of use thereof” (priority 2011, dated 2016).
# Tests used:
# thrombin = thrombin (Homo sapiens, UniProt P00734); conditions: thrombin 1.4 nM, conjugate A 10 μM, PBS, 37° C.
# Method: Conjugate A (21 μL, 0.24 mM) in water was added to 476.5 μL PBS. […] The mixture was incubated at 37° C. Aliquots (60 μL) at various time points were quenched with 1 μL of hirudin (10 μM) and injected into the HPLC (C-18 column, CH3CN/H2O, 0 to 70% over 12 minutes, 60° C. 0.5 mL/min, ? =280 nm).
# mouse FIXa (mFIXa) = mouse FIXa (mFIXa) (Mus musculus, UniProt P16294); test: FXa generation assay with mouse FIXa; format: biochemical; conditions: mFIXa compared to hFIXa
# Source text: The data confirms that the peptide was selected for binding to hFIXa.
# [1] = test system: FVIII deficient human plasma; test: Thrombin generation assay (TGA) in FVIII-deficient plasma; format: biochemical; set-up: key to Thrombin Above Baseline (nM): 1-10 nM (1) or 1-29 nM (2) (+); 11-20 nM (1) or 30-59 nM (2) (++); 21-30 nM (1) or 60-90 nM (2) (+++); >30 nM (1) or >90 nM (2) (++++); At or about baseline (−); conditions: HRF FVIII-deficient plasma (1)
# [2] = test system: 10% FVIII-deficient human plasma; test: Modified activated partial thromboplastin time (aPTT*) assay; format: biochemical
# Method: For the activated Partial Thromboplastin Time (aPTT) assay peptides to be tested were first diluted in 10% FVIII-deficient human plasma. For the aPTT* the peptides were diluted in 10% FVIII-deficient human plasma that contained traces of hFIXa (anywhere between 0 and 8.8 nM hFIXa depending on the assay) in Tris/NaCl/BSA buffer. The peptides were incubated for 10 minutes at room temperature and then assayed for clotting on a Sysmex instrument that recorded the clotting time observed for each sample. The times were compared to those of a standard curve derived from standards with known FVIII activity (U/mL) in order to determine the clotting outcome.
# FIXa [3] = target: T1, FIXa (Homo sapiens, UniProt P00740); test: FXa generation assay with human FIXa; format: biochemical; set-up: purchased Haematologic Technologies; conditions: for Vmax: class symbols
# FIXa [4] = target: T1, FIXa; test: Km/Kcat of FIXa for the substrate FX (FXa generation assay); format: biochemical; set-up: purchased Haematologic Technologies; conditions: compound 1 3 μM, compounds 3, 4, 5 1 μM, compound C 10 μM; for Km / kcat: hFIXa 10 nM, FX 10-1000 nM, PL, CaCl2; for Δ kcat: relative to buffer (1.0)
# Method: To determine the Km and Kcat of FIXa or FVIIa for the substrate FX, the FXa generation assay described above was used with the following modifications. […] Reactions were set up with varying concentrations of FX ranging between 400 and 0.8 nM and the rates of FXa generation were determined for each peptide at the different FX concentrations tested as described above. […] The catalytic constant (Kcat) was calculated by normalizing the Vmax to the enzyme concentration.
# FIXa was used at 10 nM, and FX was used at 10-1000 nM. The assay was performed in the presence of phospholipids (PL) and calcium chloride.
# FIXa [5] = target: T1, FIXa; test: Incubation with FIXa in FXa generation assay buffer, LC-MS; format: biochemical; conditions: compound 3 100 μM; FIXa 0, 10 nM, 1 μM; with or without BSA; 3 hours
# Method: The mixtures were then analyzed by LC-MS.
# [6] = test system: FVIII deficient human plasma; test: Rotational thromboelastometry (ROTEM) in FVIII-deficient human plasma; format: biochemical; conditions: for Clotting time, sec (avg.) / α-angle, degrees (avg.): human HemA plasma, lyophilized platelets, 10 fM lipTF
# FIXa [7] = target: T1, FIXa; test: FXa generation assay with compound 3, phospholipid and Gla-domain dependency; format: biochemical; conditions: compound 3 1 μM
# Source text: Formation of FXa was monitored using a chromogenic substrate as described in the FXa generation assay directly above (see b.1.).
# [8] = test system: purified recombinant human coagulation factors; test: Thrombin generation assay using purified hemostatic components; format: biochemical; conditions: compounds 1 μM; FVIII 0.1 or 1 IU/mL (FIG. 5)
# [9] = target: T2, FXa or the prothrombinase complex (Homo sapiens, UniProt P00742); test: FXa / prothrombinase activity in purified thrombin generation assay; format: biochemical; conditions: 1 μM; FXa 0.05 ug/mL, with or without FV
# T2 construct: Under these conditions FIXa cleaves the zymogen FX into the active form FXa
# Method: In another experiment it was determined whether or not the compounds of the present disclosure directly enhance the activity of FXa or the prothrombinase complex.
# [10] = target: T3, recombinant human factor IXa (hFIXa) (Homo sapiens, UniProt P00740); test: Hydrogen/deuterium exchange mass spectrometry (H/DX-MS) of hFIXa; format: binding; conditions: hFIXa 1 μM with vs without compound 4 12 μM
# T3 construct: purchased Hematologic Technologies
# Method: Hydrogen/deuterium exchange mass spectrometry (H/DX-MS) was utilized to study the higher-order structural analysis of recombinant human factor IXa (hFIXa) in combination with and without compound 4. The general method can be found in the following references: Engen and Smith (2001) Anal. Chem. 73, 256A-265A.; Wales and Engen (2006) Mass Spectrum. Rev. 25, 158-170.
# FIXa samples were equilibrated at ambient temperature (20±1° C.) for 1 hour before labeling with deuterated buffer (reaction buffers described above). The samples were then diluted 1:15 with deuterated buffer and incubated, allowing hydrogen exchange to occur for various amounts of time (10 seconds, 1, 10, 60, and 240 minutes), before the reaction was quenched with a 1:1 dilution of 200 mM citrate, 8 M guanidinium HCl, and 0.5 M TCEP, pH 2.33. Quenched samples were then incubated for 20 seconds before being further diluted 1:1 with 0.1% formic acid and immediately injected into the LC-MS system for analysis.
# Approximately 7 μg of exchanged/quenched FIXa was injected onto an immobilized pepsin column where the digestion and peptide trapping were performed for 3 minutes with a flow rate of 0.1 mL/min in 0.1% formic acid at 10° C. […] Mass spectra were acquired and peptic peptides were identified using a combination of exact mass and MS, aided by Waters Identity software (Silva J C et al., 2006. Absolute quantification of proteins by LCMSE: a virtue of parallel MS acquisition. Mol Cell Proteomics, 5(1): p144). […] The amount of deuterium in each peptide was determined by subtracting the mass of the undeuterated peptide from the mass of the deuterated peptide, incubated at various HDX time points (which were uncorrected for any back exchange). […]
# The difference in deuterium exchange between FIXa and FIXa with compound 4 was determined by subtracting the mass of each FIXa peptide from the mass of the corresponding FIXa with compound 4. […] The sum of these differences, across all time points, was calculated. […]
# [11] = aPTT*, D-amino acid scan of compound 1, listed as WT
# [12] = FXa generation assay, 10 nM hFIXa, 100 nM hFX
substance,measurement,setting,value
Cys(Acm)-Gly-Gly-Gly-Gly-Dphe-Pip-Arg-PABC-rRAPGKLTCLASYCWLFWTGIA-NH2 (Disulfide) [conjugate A],incubation time to full cleavage by thrombin,thrombin,about 60 min
KLTCLASYCWLF [Compound 1],Vmax,mouse FIXa (mFIXa),greatly reduced
same,Thrombin Above Baseline (nM),[1]; 2.5 μM,−
same,Thrombin Above Baseline (nM),[1]; 5 μM,−
same,Thrombin Above Baseline (nM),[1]; 10 μM,−
same,Thrombin Above Baseline (nM),[1]; 20 μM,−
same,Clotting time,"[2]; aPTT* with FIXa, 5 μM",47.9 s
same,"Clotting time, sec","[2]; aPTT* with FIXa, 5 μM",47.3; sec
same,Clotting time,"[2]; aPTT* with FIXa, 10 μM",43.3 s
same,"Clotting time, sec","[2]; aPTT* with FIXa, 10 μM",44.2; sec
same,Clotting time,"[2]; aPTT* with FIXa, 20 μM",43.8 s
same,"Clotting time, sec","[2]; aPTT* with FIXa, 20 μM",43.5; sec
same,Clotting time,[2]; [11],47.8 s
same,"Clotting time, sec",[2]; [11],47.9; sec
same,Clotting time,"[2]; aPTT*, FIXa 1 nM",107.4 s
same,"Clotting time, sec","[2]; aPTT*, FIXa 1 nM",105.8; sec
same,Clotting time,"[2]; aPTT*, FIXa 2 nM",82.8 s
same,"Clotting time, sec","[2]; aPTT*, FIXa 2 nM",84.4; sec
same,Clotting time,"[2]; aPTT*, FIXa 4 nM",50.6 s
same,"Clotting time, sec","[2]; aPTT*, FIXa 4 nM",50.9; sec
same,Clotting time,"[2]; aPTT*, FIXa 8 nM",40.6 s
same,"Clotting time, sec","[2]; aPTT*, FIXa 8 nM",40.1; sec
same,Vmax,FIXa [3]; [12],(+++) ((+++)>2)
same,Vmax (mOD/min min),FIXa [3]; PL: No,2.60 mOD/min min
same,Vmax (mOD/min min),FIXa [3]; PL: Yes,3.98 mOD/min min
same,Km,FIXa [4],0.024 ± 0.0048 µM
same,kcat,FIXa [4],0.00024 s⁻¹
same,Δ kcat,FIXa [4],160
RRAPGKLQCLASYCWLFWTGIA [Compound 3],substrate for FIXa (LC-MS),FIXa [5],not a substrate for FIXa
same,clotting time and α-angle with neutralizing anti-FVIII antibody,"[6]; 10 uM, polyclonal sheep IgG against human FVIII, 1:100",independent of residual FVIII
same,clotting time compared with FVIII (100% FVIII = 1 IU/mL),"[6]; compound 3 at 5 μM, faster than",> 100 % FVIII
same,α-angle corresponding to FVIII,[6]; compound 3 at 10 μM,about 20 % FVIII
same,"Clotting time, sec (avg.)",[6]; 0.625 μM,792 s
same,"α-angle, degrees (avg.)",[6]; 0.625 μM,29 degrees
same,"Clotting time, sec (avg.)",[6]; 2.5 μM,452 s
same,"α-angle, degrees (avg.)",[6]; 2.5 μM,33 degrees
same,"Clotting time, sec (avg.)",[6]; 5 μM,329 s
same,"α-angle, degrees (avg.)",[6]; 5 μM,38 degrees
same,"Clotting time, sec (avg.)",[6]; 10 μM,205 s
same,"α-angle, degrees (avg.)",[6]; 10 μM,51 degrees
same,Clotting time,"[2]; aPTT*, exogenous hFIXa 0.5 nM",115.2 s
same,"Clotting time, sec","[2]; aPTT*, exogenous hFIXa 0.5 nM",115.6; sec
same,Clotting time,"[2]; aPTT*, exogenous hFIXa 8.8 nM",41.9 s
same,"Clotting time, sec","[2]; aPTT*, exogenous hFIXa 8.8 nM",45.4; sec
same,Percentage of control (FXa generation),FIXa [7]; +PL,100%
same,Percentage of control (FXa generation),FIXa [7]; +PL +anti-FIX IgG (Gla),58.0%
same,Percentage of control (FXa generation),FIXa [7]; −PL,90%
same,Vmax,FIXa [3]; FXa generation assay using human FIXa,(++++) ((++++)>3)
same,Vmax (mOD/min min),FIXa [3]; PL: No,2.77 mOD/min min
same,Vmax (mOD/min min),FIXa [3]; PL: Yes,3.90 mOD/min min
same,Km,FIXa [4],0.016 ± 0.0035 µM
same,kcat,FIXa [4],0.000295 s⁻¹
same,Δ kcat,FIXa [4],197
RRAPGKLTCLASYCWLFWTGIA [Compound 4],thrombin generation,[8],induce thrombin generation
same,catalytic activity of FXa or the prothrombinase complex,[9],did not substantially increase the catalytic activity of FXa or the prothrombinase complex
same,FIXa peptide with most important significant difference in H/D exchange,[10],heavy chain peptide 177-185
same,difference index DI(1),[10],2
same,difference index DI(2),[10],0
same,Vmax,FIXa [3]; [12],(+++) ((+++)>2)
same,Km,FIXa [4],0.011 ± 0.0027 µM
same,kcat,FIXa [4],0.000285 s⁻¹
same,Δ kcat,FIXa [4],190
